The nature of data set [1]: Biological half-life. The conditions noted are these: compared with several minutes for GLP-1. The format is in vivo.
Data set [2] deals with AR42J cells. Put plainly: Protein tyrosine phosphorylation in AR42J cells. Format: cell-based, rat. The conditions noted are these: 5 min treatment. The method, then:
Tyrosine Phosphorylation Studies. […] Then the medium was removed and fresh KRBB was added, followed by placing the cell on a 37° C. hot plate for 5 min. After addition of various reagents (see FIG. 24) for 5 min the reaction was terminated by submersion of the dishes in liquid nitrogen. The frozen cells were scraped and lysed in RIPA buffer. […] The blots were developed using the ECL chemiluminescence detection system (Amersham).

In data set [3] the test system is glucokinase mRNA. The data set can be described thus: Slot-blot quantitation of glucokinase mRNA in pancreata and islets. Format: in vivo, rat. The conditions noted are these: young (P<0.05), much more so in old animals (P<0.001). The text has this:
(§1) The rats were implanted with an Alzet micro-osmotic pump (Alza Corp., Palo Alto, Calif.) in the interscapular region for 48 hrs. […] Control animals received normal saline in their pumps and received their infusion for the same length of time.
(§2) After an overnight fast, animals were sacrificed, pancreata were removed and frozen in liquid nitrogen as quickly as possible. RNA was extracted by homogenization in guanidinium isothiocyanate, followed by ultracentrifugation on a 5.7 M cesium chloride cushion (Glisin et al., 1974; Chigwin et al., 1979). Poly-A RNA was then prepared from total RNA by affinity chromatography using oligo (dT) columns (Biolabs INC, Beverly, Mass.). RNA was quantified by spectrophotometric analysis at […]. Slot-blot analysis using poly-A RNA was used for quantitation of mRNA levels of glucokinase, which is the main glucose sensor of the beta cell (Matschinsky, 1990), the three hexokinases, GLUT2, the major glucose transporter of the beta cell (Mueckler, 1990), and insulin. Four micrograms of poly-A RNA were diluted in 50 μl TE buffer (Tris-HCL 10 mM, EDTA 1 mM, pH 7.4), 20 μl of 37% formaldehyde and 20 μl of 10× SSC. Samples were incubated at 60° C. for 15 min and then diluted with 1 ml of ice-cold 10× SSC (1×SCC=0.15 M NaCl+0.015 sodium citrate). […]

For data set [4], the system named is AR42J cells. Put plainly: Amylase content and CCK response of AR42J cells after 72 h treatment. The format is cell-based, rat. The method, then:
Amylase Assay. For amylase determination, cells were washed free of medium with 2 ml PBS. Incubation was then carried out in DMEM containing 15 mM HEPES, 0.2% BSA and 0.01% soybean trypsin inhibitor. CCK (1 nM) was added for 50 min at 37° C. The incubation medium was then immediately removed for amylase determination and the cells were again washed in 2 ml ice-cold PBS. Lysate buffer containing (in mM) 130 Tris-HCl, 10 CaCl2, 75 NaCl, and 0.2% Triton X-100 (pH 8.0) was added to the cells and the lysates were then collected for total amylase (Ceska et al., 1969). The released amylase was expressed as the percentage of the total amylase in the cells.

The test system of data set [5] is insulin mRNA. Put plainly: Slot-blot quantitation of insulin mRNA in pancreata and islets. The format is in vivo, rat. The conditions noted are these: young and old animals, 48 hrs infusion, P<0.01.
From the text: as §1, §2

In the case of exendin-4, in data set [1], the half-life result was “on the order of hours”.
`CC[C@H](C)[C@H](NC(=O)[C@H](Cc1ccccc1)NC(=O)[C@H](CCC(=O)O)NC(=O)[C@H](CCCCN)NC(=O)[C@H](C)NC(=O)[C@H](C)NC(=O)[C@H](CCC(N)=O)NC(=O)CNC(=O)[C@H](CCC(=O)O)NC(=O)[C@H](CC(C)C)NC(=O)[C@H](Cc1ccc(O)cc1)NC(=O)[C@H](CO)NC(=O)[C@H](CO)NC(=O)[C@@H](NC(=O)[C@H](CC(=O)O)NC(=O)[C@H](CO)NC(=O)[C@@H](NC(=O)[C@H](Cc1ccccc1)NC(=O)[C@@H](NC(=O)CNC(=O)[C@H](CCC(=O)O)NC(=O)[C@H](C)NC(=O)[C@@H](N)Cc1c[nH]cn1)[C@@H](C)O)[C@@H](C)O)C(C)C)C(=O)N[C@@H](C)C(=O)N[C@@H](Cc1c[nH]c2ccccc12)C(=O)N[C@@H](CC(C)C)C(=O)N[C@H](C(=O)N[C@@H](CCCCN)C(=O)NCC(=O)N[C@@H](CCCNC(=N)N)C(N)=O)C(C)C` [GLP-1]: the “effect on protein tyrosine phosphorylation” value in data set [2] is reported as “did not have any effect”. Moreover, in data set [3], the “glucokinase mRNA levels” value is on record as “significantly increased”. In addition, the total amylase content in data set [4] (GLP-1 added together with dexamethasone, 72 h) came out at 7.76 U/1. Besides, in data set [4] (cells pretreated with GLP-1 for 72 h), the “acute amylase response to CCK (1 nM)” value is “decreased”. Further, the “insulin mRNA vs controls” value in data set [5] was “increased”.

For the origin of these results see patent US7056734B1, “Differentiation of non-insulin producing cells into insulin producing cells by GLP-1 or exendin-4 and uses thereof” (The United States of America as represented by the …, priority 1998, dated 2006).
